“Also recorded” adds a separate entry of the source.
Assay: Phase 1 study: safety and tolerability (TEAEs, NCI CTCAE v5.0)
Experimental: The study employed an open-label, 3+3 design, with the option of adding backfill patients to each cohort cleared and deemed safe. […] Tumor responses were assessed every 2 cycles using RECIST v1.1 criteria. […] The study also involves an ongoing dose escalation study where participants receive 100 mg, 200 mg, 300 mg, 400 mg, and 600 mg once daily (QD) dose levels.
Safety was assessed through the analysis of the reported incidence of treatment-emergent AEs. Treatment-emergent AEs are those with an onset on or after the initiation of therapy and will be graded according to NCI CTCAE Version 5.0. Other safety endpoints, including laboratory results, vital signs, and ECG findings, were summarized for all patients in the Safety set.

[1] = Cohort 2/200 mg QD, patient 4, first listed event
[2] = Cohort 2/200 mg QD, patient 4, second listed event
[3] = Cohort 3/300 mg QD, patient 1, first listed event
[4] = Cohort 3/300 mg QD, patient 1, second listed event

Structure (SMILES): O=C1CC[C@H](N2Cc3cc(N4CCN(CC5CCN(c6ccc([C@@H]7c8ccc(O)cc8OC[C@@H]7c7ccccc7)cc6F)CC5)CC4)ccc3C2=O)C(=O)N1 [compound (1-g), (S)-3-(5-(4-((1-(2-fluoro-4-((3S,4R)-7-hydroxy-3-phenylchroman-4-yl)phenyl)piperidin-4-yl)methyl)piperazin-1-yl)-1-oxoisoindolin-2-yl)piperidine-2,6-dione]
- Duration of TEAE leading to dose interruption: Pain in extremity [1]: 56 days
- Related to Compound (1-g), TEAE leading to dose interruption: Pain in extremity [1]: No
- CTCAE Grade of TEAE leading to dose interruption: Pain in extremity [2]: 2
- Related to Compound (1-g), TEAE leading to dose interruption: Pain in extremity [2]: No
- participants with TEAEs that led to dose interruption (Cohort 3 (300 mg QD)): 2 participants
- CTCAE Grade of TEAE leading to dose interruption: Anaemia (Cohort 3/300 mg QD, patient 1): 3
- Related to Compound (1-g), TEAE leading to dose interruption: Anaemia (Cohort 3/300 mg QD, patient 1): No
- CTCAE Grade of TEAE leading to dose interruption: Acute kidney injury [3]: 3
- Duration of TEAE leading to dose interruption: Acute kidney injury [3]: 6 days
- Related to Compound (1-g), TEAE leading to dose interruption: Acute kidney injury [3]: No
- CTCAE Grade of TEAE leading to dose interruption: Acute kidney injury [4]: 3
- Duration of TEAE leading to dose interruption: Acute kidney injury [4]: 7 days
- Related to Compound (1-g), TEAE leading to dose interruption: Acute kidney injury [4]: No
- CTCAE Grade of TEAE leading to dose interruption: Muscular weakness (Cohort 3/300 mg QD, patient 2): 2
- CTCAE Grade of TEAE leading to dose interruption: Upper respiratory tract infection (Cohort 3/300 mg QD, patient 2): 2
- Duration of TEAE leading to dose interruption: Upper respiratory tract infection (Cohort 3/300 mg QD, patient 2): 8 days
- Related to Compound (1-g), TEAE leading to dose interruption: Muscular weakness (Cohort 3/300 mg QD, patient 2): No
- Related to Compound (1-g), TEAE leading to dose interruption: Upper respiratory tract infection (Cohort 3/300 mg QD, patient 2): No
- participants with TEAEs that led to dose interruption (Cohort 4 and 5 (400, 600 mg QD)): No participant experienced TEAEs that led to dose interruption
- Constipation, Related-TEAE All Grades (N = 37): 3 n (%)
- Constipation, Related-TEAE Grade ≥ 3 (N = 37): 0 n (%)
- Constipation, TEAE All Grades (N = 37): 4 (11) n (%)
- Constipation, TEAE Grade ≥ 3 (N = 37): 0 n (%)
- Dehydration, Related-TEAE All Grades (N = 37): 0 n (%)
- Dehydration, Related-TEAE Grade ≥ 3 (N = 37): 0 n (%)
- Dehydration, TEAE All Grades (N = 37): 5 (14) n (%)
- Dehydration, TEAE Grade ≥ 3 (N = 37): 2 (5) n (%)
- Fatigue, Related-TEAE All Grades (N = 37): 2 n (%)
- Fatigue, Related-TEAE Grade ≥ 3 (N = 37): 0 n (%)
- Fatigue, TEAE All Grades (N = 37): 6 (16) n (%)
- Fatigue, TEAE Grade ≥ 3 (N = 37): 1 (3) n (%)
- Grade 5 event of seizure (N = 37): 1 event
- Hot flush, Related-TEAE All Grades (N = 37): 5 n (%)
- Hot flush, Related-TEAE Grade ≥ 3 (N = 37): 0 n (%)
- Hot flush, TEAE All Grades (N = 37): 5 (14) n (%)
- Hot flush, TEAE Grade ≥ 3 (N = 37): 0 n (%)
- Nausea, Related-TEAE All Grades (N = 37): 5 n (%)
- Nausea, Related-TEAE Grade ≥ 3 (N = 37): 0 n (%)
- Nausea, TEAE All Grades (N = 37): 7 (19) n (%)
- Nausea, TEAE Grade ≥ 3 (N = 37): 0 n (%)
- Neutrophil count decreased, Related-TEAE All Grades (N = 37): 4 n (%)
- Neutrophil count decreased, Related-TEAE Grade ≥ 3 (N = 37): 0 n (%)
- Neutrophil count decreased, TEAE All Grades (N = 37): 6 (16) n (%)
- Neutrophil count decreased, TEAE Grade ≥ 3 (N = 37): 1 (3) n (%)
- TEAE constipation, participants (N = 37): 10.8%
- TEAE dehydration, participants (N = 37): 13.5%
- TEAE fatigue, participants (N = 37): 16.2%
- TEAE hot flush, participants (N = 37): 13.5%
- TEAE nausea, participants (N = 37): 18.9%
- TEAE neutrophil count decreased, participants (N = 37): 16.2%
- compound-related SAEs (N = 37): No compound (1-g)-related SAEs were observed
- deaths reported, all assessed as unrelated to compound (1-g) (N = 37): 3 deaths
- dose reductions or treatment discontinuations due to TEAEs (N = 37): no dose reductions or treatment discontinuations due to TEAEs
- grade of treatment-related AEs (N = 37): All treatment-related AEs were Grade 1 or 2
- participants with at least a TEAE (N = 37): 78%
- patients experiencing SAEs (nine SAEs) (N = 37): 8 patients
- related TEAE hot flush, participants (N = 37): 13.5%
- related TEAE nausea, participants (N = 37): 13.5%
- related TEAE neutrophil count decrease, participants (N = 37): 10.8%
- relatedness of TEAEs that led to dose interruption (N = 37): None of these were considered related to compound (1-g)
- participants with compound (1-g) related TEAEs (N = 37, fifteen participants): 40.5%
- participants with Grade 23 TEAEs (N = 37, ten participants): 27.0%
- Patients with Any Compound (1-g) related TEAE (Overall (N = 37)): 15 (40.5) n (%)
- Patients with Any TEAE (Overall (N = 37)): 29 (78.4) n (%)
- TEAE: Abdominal Distension (Overall (N = 37)): 1 (2.7) n (%)
- TEAE: Abdominal Pain (Overall (N = 37)): 2 (5.4) n (%)
- TEAE: Acute Kidney Injury (Overall (N = 37)): 1 (2.7) n (%)
- TEAE: Adrenal Insufficiency (Overall (N = 37)): 1 (2.7) n (%)
- TEAE: Alopecia (Overall (N = 37)): 1 (2.7) n (%)
- TEAE: Anaemia (Overall (N = 37)): 2 (5.4) n (%)
- TEAE: Anxiety (Overall (N = 37)): 1 (2.7) n (%)
- TEAE: Arthralgia (Overall (N = 37)): 2 (5.4) n (%)
- TEAE: Axillary Vein Thrombosis (Overall (N = 37)): 1 (2.7) n (%)
- TEAE: Back Pain (Overall (N = 37)): 3 (8.1) n (%)
- TEAE: Basal Cell Carcinoma (Overall (N = 37)): 1 (2.7) n (%)
- TEAE: Breast Pain (Overall (N = 37)): 1 (2.7) n (%)
- TEAE: Confusional State (Overall (N = 37)): 1 (2.7) n (%)
- TEAE: Constipation (Overall (N = 37)): 4 (10.8) n (%)
- TEAE: Cough (Overall (N = 37)): 1 (2.7) n (%)
- TEAE: Covid-19 Pneumonia (Overall (N = 37)): 1 (2.7) n (%)
- TEAE: Dehydration (Overall (N = 37)): 5 (13.5) n (%)
- TEAE: Diarrhoea (Overall (N = 37)): 3 (8.1) n (%)
- TEAE: Dizziness (Overall (N = 37)): 1 (2.7) n (%)
- TEAE: Dysgeusia (Overall (N = 37)): 1 (2.7) n (%)
- TEAE: Dyspepsia (Overall (N = 37)): 1 (2.7) n (%)
- TEAE: Dyspnoea (Overall (N = 37)): 3 (8.1) n (%)
- TEAE: Dysuria (Overall (N = 37)): 2 (5.4) n (%)
- TEAE: Eructation (Overall (N = 37)): 1 (2.7) n (%)
- TEAE: Fall (Overall (N = 37)): 2 (5.4) n (%)
- TEAE: Fatigue (Overall (N = 37)): 6 (16.2) n (%)
- TEAE: Flatulence (Overall (N = 37)): 2 (5.4) n (%)
- TEAE: Fracture (Overall (N = 37)): 1 (2.7) n (%)
- TEAE: Fungal Infection (Overall (N = 37)): 1 (2.7) n (%)
- TEAE: Haematoma (Overall (N = 37)): 1 (2.7) n (%)
- TEAE: Hot Flush (Overall (N = 37)): 5 (13.5) n (%)
- TEAE: Hyperglycaemia (Overall (N = 37)): 1 (2.7) n (%)
- TEAE: Hyperhidrosis (Overall (N = 37)): 3 (8.1) n (%)
- TEAE: Hypokalaemia (Overall (N = 37)): 2 (5.4) n (%)
- TEAE: Hypotension (Overall (N = 37)): 1 (2.7) n (%)
- TEAE: Influenza Like Illness (Overall (N = 37)): 1 (2.7) n (%)
- TEAE: Insomnia (Overall (N = 37)): 3 (8.1) n (%)
- TEAE: Lower Respiratory Tract Congestion (Overall (N = 37)): 1 (2.7) n (%)
- TEAE: Lymphocyte Count Decreased (Overall (N = 37)): 1 (2.7) n (%)
- TEAE: Muscle Spasm (Overall (N = 37)): 1 (2.7) n (%)
- TEAE: Muscular Weakness (Overall (N = 37)): 2 (5.4) n (%)
- TEAE: Musculoskeletal Stiffness (Overall (N = 37)): 1 (2.7) n (%)
- TEAE: Nail Disorder (Overall (N = 37)): 1 (2.7) n (%)
- TEAE: Nasal Congestion (Overall (N = 37)): 1 (2.7) n (%)
- TEAE: Nausea (Overall (N = 37)): 7 (18.9) n (%)
- TEAE: Neutrophil Count Decreased (Overall (N = 37)): 6 (16.2) n (%)
- TEAE: Oedema Peripheral (Overall (N = 37)): 2 (5.4) n (%)
- TEAE: Ophthalmic Migraine (Overall (N = 37)): 1 (2.7) n (%)
- TEAE: Oral Pain (Overall (N = 37)): 1 (2.7) n (%)
- TEAE: Pain In Extremity (Overall (N = 37)): 1 (2.7) n (%)
- TEAE: Pharyngitis (Overall (N = 37)): 1 (2.7) n (%)
- TEAE: Platelet Count Decreased (Overall (N = 37)): 2 (5.4) n (%)
- TEAE: Pleural Effusion (Overall (N = 37)): 1 (2.7) n (%)
- TEAE: Pneumonia (Overall (N = 37)): 2 (5.4) n (%)
- TEAE: Productive Cough (Overall (N = 37)): 1 (2.7) n (%)
- TEAE: Rash Maculo-Papular (Overall (N = 37)): 2 (5.4) n (%)
- TEAE: Rhinitis Allergic (Overall (N = 37)): 1 (2.7) n (%)
- TEAE: Rib Fracture (Overall (N = 37)): 1 (2.7) n (%)
- TEAE: Seizure (Overall (N = 37)): 1 (2.7) n (%)
- TEAE: Sepsis (Overall (N = 37)): 1 (2.7) n (%)
- TEAE: Tremor (Overall (N = 37)): 2 (5.4) n (%)
- TEAE: Upper Respiratory Tract Infection (Overall (N = 37)): 3 (8.1) n (%)
- TEAE: Urinary Tract Infection (Overall (N = 37)): 2 (5.4) n (%)
- TEAE: Vaginal Haemorrhage (Overall (N = 37)): 1 (2.7) n (%)
- TEAE: Vomiting (Overall (N = 37)): 2 (5.4) n (%)
- related TEAE: Alopecia (Overall (N = 37)): 1 (2.7) n (%)
- related TEAE: Arthralgia (Overall (N = 37)): 1 (2.7) n (%)
- related TEAE: Constipation (Overall (N = 37)): 3 (8.1) n (%)
- related TEAE: Diarrhea (Overall (N = 37)): 3 (8.1) n (%)
- related TEAE: Dysgeusia (Overall (N = 37)): 1 (2.7) n (%)
- related TEAE: Eructation (Overall (N = 37)): 1 (2.7) n (%)
- related TEAE: Fatigue (Overall (N = 37)): 2 (5.4) n (%)
- related TEAE: Flatulence (Overall (N = 37)): 1 (2.7) n (%)
- related TEAE: Hyperhidrosis (Overall (N = 37)): 1 (2.7) n (%)
- related TEAE: Nail Disorder (Overall (N = 37)): 1 (2.7) n (%)
- related TEAE: Platelet Count Decreased (Overall (N = 37)): 1 (2.7) n (%)
- related TEAE: Tremor (Overall (N = 37)): 1 (2.7) n (%)
- related TEAE: Vomiting (Overall (N = 37)): 1 (2.7) n (%)
- Compound (1-g) related TEAEs of CTCAE grade >=3 (all cohorts, N = 37): no Grade≥3 TEAEs were considered as related to compound (1-g); also recorded: No data meets output criteria
- participants with TEAEs that led to dose interruption (all cohorts, N = 37): Nine
- dose-related trend in incidence of related TEAEs (between 100 mg and 600 mg): No dose-related trends were evident
- related TEAE: Hot Flush (human, in vivo): 5 (13.5) n (%)
- related TEAE: Nausea (human, in vivo): 5 (13.5) n (%)
- related TEAE: Neutrophil Count Decreased (human, in vivo): 4 (10.8) n (%)

— US20250381179A1, “CHROMAN-BASED COMPOUNDS FOR TREATING CANCER” (priority 2024, published 2025)
